Laboratory results from patent US20240262826A1, “WILD TYPE KIT INHIBITORS” (Blueprint Medicines Corporation, priority 2022, published 2024).

Tests used:
[1] = target: wild type c-kit (Homo sapiens (Human), UniProt P10721); experiment: PathScan phospho c-kit (Tyr719) sandwich ELISA in SCF-stimulated M-07e cells (pKIT assay); type: cell-based; details: ELISA assay (values not marked *)
In short: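 Serum- and GM-CSF-starved M-07e cells (4 h) pretreated 60 min at 37 °C with an 8-point compound series in duplicate (0.25% DMSO), then stimulated with human SCF (500 ng/mL stock) 10 min at room temperature. Lysate c-kit Tyr719 phosphorylation quantified by sandwich ELISA with TMB read-out; IC50 from 4-parameter logistic fit.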

[2] = target: human P-glycoprotein (P-gp, MDR1) (Homo sapiens (Human), UniProt P08183); experiment: MDCK-MDR1 cell monolayer drug transport assay (P-gp efflux ratio); type: in vitro ADME; details: pH 7.4, MDCK-MDR1 cells, 1 uM concentration of compound, read-out: Pgp Efflux Ratio, 1 uM
Sequence of human P-glycoprotein (P-gp, MDR1) (P08183 whole entry): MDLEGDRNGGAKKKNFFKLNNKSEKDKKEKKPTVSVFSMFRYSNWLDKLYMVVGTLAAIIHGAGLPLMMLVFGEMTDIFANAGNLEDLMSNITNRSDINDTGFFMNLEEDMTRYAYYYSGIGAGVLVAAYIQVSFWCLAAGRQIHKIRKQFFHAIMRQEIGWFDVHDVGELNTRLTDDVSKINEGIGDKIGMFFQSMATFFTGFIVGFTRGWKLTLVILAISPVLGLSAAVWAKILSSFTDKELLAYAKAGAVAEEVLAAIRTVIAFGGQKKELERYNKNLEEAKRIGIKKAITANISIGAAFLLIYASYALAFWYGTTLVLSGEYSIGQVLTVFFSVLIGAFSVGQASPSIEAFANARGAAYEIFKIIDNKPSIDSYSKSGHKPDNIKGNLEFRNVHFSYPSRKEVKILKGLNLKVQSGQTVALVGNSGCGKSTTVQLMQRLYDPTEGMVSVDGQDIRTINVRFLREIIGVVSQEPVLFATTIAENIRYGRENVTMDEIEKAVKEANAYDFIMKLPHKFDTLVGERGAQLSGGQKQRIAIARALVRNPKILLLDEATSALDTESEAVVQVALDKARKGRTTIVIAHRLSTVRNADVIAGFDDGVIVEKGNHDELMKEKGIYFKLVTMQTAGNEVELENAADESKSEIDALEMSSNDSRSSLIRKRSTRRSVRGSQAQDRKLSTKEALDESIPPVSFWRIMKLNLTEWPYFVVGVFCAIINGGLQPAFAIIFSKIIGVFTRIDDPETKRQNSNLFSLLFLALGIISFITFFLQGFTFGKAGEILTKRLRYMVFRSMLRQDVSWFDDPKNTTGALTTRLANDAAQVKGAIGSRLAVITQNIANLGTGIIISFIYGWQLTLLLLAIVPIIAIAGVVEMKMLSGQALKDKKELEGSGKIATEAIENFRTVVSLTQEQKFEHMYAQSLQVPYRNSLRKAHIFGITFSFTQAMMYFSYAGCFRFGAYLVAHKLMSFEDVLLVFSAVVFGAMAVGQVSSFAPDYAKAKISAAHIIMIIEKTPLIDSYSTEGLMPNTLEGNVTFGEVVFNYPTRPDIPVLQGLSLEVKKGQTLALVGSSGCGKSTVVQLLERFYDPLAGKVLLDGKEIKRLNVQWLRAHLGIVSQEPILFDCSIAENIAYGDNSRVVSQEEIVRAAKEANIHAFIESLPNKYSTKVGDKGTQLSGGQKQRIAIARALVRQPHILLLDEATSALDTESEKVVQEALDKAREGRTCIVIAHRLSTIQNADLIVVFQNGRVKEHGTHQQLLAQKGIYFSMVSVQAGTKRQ
Experimental: The potential for compounds prepared according to the examples to be substrates of P-gp was evaluated using in vitro on Multidrug Resistance Mutation 1-Mardin-Darby Canine Kidney (MDCK-MDR1)) (Mardin-Darby Canine Kidney) cell monolayers overexpressing P-gp grown on permeable supports.
Preparation for cell seeding: MDCK-MDR1 cell culture medium consisting of Dulbecco's Modified Eagle's Medium (DMEM) with high glucose and L-glutamine supplemented with: 10% FBS, 0.1 mg/mL of streptomycin, 0.6 μg/mL of Kanamycin sulfate and 100 units of penicillin was prepared. 50 μL of culture medium was added to each well of the Transwell insert. The Transwell insert was removed from the reservoir and 25 mL of culture medium was added. After incubation at 37° C., 5% CO2 for 1 hour, the plates were ready for cell seeding. The cells were cultivated in T-75 flasks in a cell culture incubator set at 37° C., 5% CO2, 95% relative humidity until they reached 80-90% confluence before detaching and splitting. The cultivated cells were rinsed in T-75 flasks with 5 mL PBS and aspirated off, and then 1.5 mL trypsin/EDTA was added and incubated at 37° C. for approximately 5 to 10 minutes or until the cells detach and float. The trypsin/EDTA was inactived by adding excess serum containing medium. The cell suspension was transferred to a conical tube and the cells pelleted by centrifugation at 120×g for 10 minutes. The cells were resuspended in seeding medium at a density of 1.56×10^6 cells/mL. This cell concentration was used to seed 5.45×10^5 cells/cm^2.
Seeding and feeding of MDCK-MDR1 cells into transwell plates: 50 μL of the above cell suspension was added to each well of a previously prepared Transwell plate and the plate was incubated for 4-8 days, replacing the medium every other day beginning no sooner than 48 hours after initial plating. The medium must be replaced on the day before conducting the experiment, and the procedure for medium changes was carried out as follows. The plate was removed from the incubator and placed in a hood. The medium was aspirated from a reservoir and each Transwell was inserted. 100 μL of culture medium was added to each well of the Transwell inserts and 25 mL of culture medium to reservoir tray. The plate was returned to the incubator.
Assessment of cell monolayer integrity: When the 4-day cultured MDCK-MDR1 cells reached confluence and were differentiated, the medium was removed from the reservoir and Transwell inserts. 100 μL of prewarmed culture medium was added to each transwell insert and 25 mL was added to the reservoir tray. The electrical resistance across the monolayer was measured using a Millicell Epithelial Volt-Ohm measuring system. The electrical resistance for each well was measured and then the plate was returned to the incubator. TEER values were calculated using this formula: TEER measurement (ohms)×Area of membrane (cm2)=TEER value (ohm cm2). Any monolayer with a TEER value <42 ohms·cm2, indicating poor monolayer formation, was discarded.
Performing the drug transport assay: The MDCK-MDR1 plate was removed from the incubator and the monolayer was washed, exchanging the volume two times using pre-warmed HBSS (Hank's balanced salt solution) (10 mM HEPES, pH 7.4). The plate was then incubated at 37° C. for 30 minutes. A 1 μM compound working solution was prepared as follows: Added […] of stock solution (10 mM in DMSO) of test compound and control compounds (Metoprolol, Prazosin and Imatinib) in one 96 well plate, then added 98 μL of DMSO into the same well to obtain 0.2 mM stock solutions (note a stock solution was further diluted 1:10 for eventually making a 0.1 uM compound working solution). Transfered 3 μL of 0.2 mM solution into 597 μL of transport buffer in one 96 well plate to prepare the 1 μM compound working solution. The plate was shaken at 1000 rpm for 10 min.

Sequence of wild type c-kit (P10721 26-976): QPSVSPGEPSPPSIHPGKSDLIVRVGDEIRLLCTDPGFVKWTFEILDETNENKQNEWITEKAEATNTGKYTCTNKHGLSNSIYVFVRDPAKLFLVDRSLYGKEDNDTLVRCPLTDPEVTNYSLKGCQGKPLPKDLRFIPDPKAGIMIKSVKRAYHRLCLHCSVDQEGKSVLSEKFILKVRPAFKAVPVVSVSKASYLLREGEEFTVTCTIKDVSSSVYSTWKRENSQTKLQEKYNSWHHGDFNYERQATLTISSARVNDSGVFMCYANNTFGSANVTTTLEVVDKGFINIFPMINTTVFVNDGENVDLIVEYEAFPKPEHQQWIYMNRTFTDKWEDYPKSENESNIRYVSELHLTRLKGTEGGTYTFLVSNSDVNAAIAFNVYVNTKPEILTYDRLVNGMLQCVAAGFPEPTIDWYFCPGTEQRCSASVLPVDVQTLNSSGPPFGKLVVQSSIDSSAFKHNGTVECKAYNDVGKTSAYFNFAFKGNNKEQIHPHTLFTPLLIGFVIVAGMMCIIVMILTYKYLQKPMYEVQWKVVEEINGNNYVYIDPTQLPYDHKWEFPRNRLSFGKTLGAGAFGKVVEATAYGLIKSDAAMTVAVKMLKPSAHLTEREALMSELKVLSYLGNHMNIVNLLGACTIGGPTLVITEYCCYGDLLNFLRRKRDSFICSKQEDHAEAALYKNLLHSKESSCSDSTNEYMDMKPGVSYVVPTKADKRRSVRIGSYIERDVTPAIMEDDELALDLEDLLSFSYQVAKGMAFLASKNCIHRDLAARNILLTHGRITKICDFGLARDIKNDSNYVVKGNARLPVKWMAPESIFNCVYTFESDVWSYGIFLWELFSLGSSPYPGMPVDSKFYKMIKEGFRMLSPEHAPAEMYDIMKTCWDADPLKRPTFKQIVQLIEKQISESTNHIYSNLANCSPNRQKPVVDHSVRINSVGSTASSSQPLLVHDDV

| IC50 [1] | efflux ratio at 2 h, 1 µM [2] | Structure (SMILES) |
| --- | --- | --- |
| 26.3 nM | 18.9 | COC(=O)N1CC(c2cnn(-c3ccc(C)c(NC(=O)c4cnn5ccc(NCC(F)F)cc45)c3)n2)C1 [Example 139, methyl 3-(2-(3-(5-((2,2-difluoroethyl)amino)pyrazolo[1,5-a]pyridine-3-carboxamido)-4-methylphenyl)-2H-1,2,3-triazol-4-yl)azetidine-1-carboxylate] |
| 71 nM | 43.1 | COC(=O)N1CC(n2nnc(-c3ccc(C)c(NC(=O)c4cnn5ccc(NCC(C)(C)O)cc45)c3)n2)C1 [Example 89, methyl 3-(5-(3-(5-((2-hydroxy-2-methylpropyl)amino)pyrazolo[1,5-a]pyridine-3-carboxamido)-4-methylphenyl)-2H-tetrazol-2-yl)azetidine-1-carboxylate] |
| 21.9 nM | 51.9 | COC(=O)N1CC(c2cnn(-c3ccc(C)c(NC(=O)c4cnn5ccc(N(C)CCO)cc45)c3)n2)C1 [Example 84, methyl 3-(2-(3-(5-((2-hydroxyethyl)(methyl)amino)pyrazolo[1,5-a]pyridine-3-carboxamido)-4-methylphenyl)-2H-1,2,3-triazol-4-yl)azetidine-1-carboxylate] |
| 35.4 nM | 5.5 | Cc1ccc(-c2nnn(C3CN(S(C)(=O)=O)C3)n2)cc1NC(=O)c1cnn2ccccc12 [Example 172, N-(2-methyl-5-(2-(1-(methylsulfonyl)azetidin-3-yl)-2H-tetrazol-5-yl)phenyl)pyrazolo[1,5-a]pyridine-3-carboxamide] |
| 0.6 nM | 7.4 | Cc1cc(F)c(-c2nnn(C3CC3)n2)cc1NC(=O)c1cnn2ccc(-c3cnn(CC(C)(C)O)c3C)cc12 [Example 240, N-(5-(2-cyclopropyl-2H-tetrazol-5-yl)-4-fluoro-2-methylphenyl)-5-(1-(2-hydroxy-2-methylpropyl)-5-methyl-1H-pyrazol-4-yl)pyrazolo[1,5-a]pyridine-3-carboxamide] |
| 18.8 nM | 37.6 | Cc1ccc(-c2nnn(C3CN(S(C)(=O)=O)C3)n2)cc1NC(=O)c1cnn2ccc(COCC(F)F)cc12 [Example 154, 5-((2,2-difluoroethoxy)methyl)-N-(2-methyl-5-(2-(1-(methylsulfonyl)azetidin-3-yl)-2H-tetrazol-5-yl)phenyl)pyrazolo[1,5-a]pyridine-3-carboxamide] |
| 0.3 nM | 3.4 | C[C@](O)(CO)Cn1cc(-c2ccn3ncc(C(=O)Nc4cc(-c5nnn(C6CC6)n5)ccc4Cl)c3c2)cn1 [Example 266, (R)-N-(2-chloro-5-(2-cyclopropyl-2H-tetrazol-5-yl)phenyl)-5-(1-(2,3-dihydroxy-2-methylpropyl)-1H-pyrazol-4-yl)pyrazolo[1,5-a]pyridine-3-carboxamide] |
| 126 nM | 4.1 | COCCCc1ccn2ncc(C(=O)Nc3cc(-c4nnn(C5CN(C(=O)OC)C5)n4)ccc3C)c2c1 [Example 58, methyl 3-(5-(3-(5-(3-methoxypropyl)pyrazolo[1,5-a]pyridine-3-carboxamido)-4-methylphenyl)-2H-tetrazol-2-yl)azetidine-1-carboxylate] |
| 14.8 nM | 19.1 | COCCNc1ccn2ncc(C(=O)Nc3cc(-c4nnn([C@H]5C[C@H](CO)C5)n4)c(F)cc3C)c2c1 [Example 202, N-(4-fluoro-5-(2-((1r,3r)-3-(hydroxymethyl)cyclobutyl)-2H-tetrazol-5-yl)-2-methylphenyl)-5-((2-methoxyethyl)amino)pyrazolo[1,5-a]pyridine-3-carboxamide] |
| 6.4 nM | 5.9 | COCCNc1ccc2c(C(=O)Nc3cc(-c4nnn(C5CN(C(=O)OC)C5)n4)ccc3Cl)cnn2c1 [Example 157, methyl 3-(5-(4-chloro-3-(6-((2-methoxyethyl)amino)pyrazolo[1,5-a]pyridine-3-carboxamido)phenyl)-2H-tetrazol-2-yl)azetidine-1-carboxylate] |
| 0.5 nM | 4.9 | C[C@](O)(CO)Cn1cc(-c2ccn3ncc(C(=O)Nc4cc(-n5nnc([C@@H]6C[C@H]6F)n5)ccc4Cl)c3c2)cn1 (single isomer, unassigned) [Example 273, N-(2-chloro-5-(5-((1S,2R)-2-fluorocyclopropyl)-2H-tetrazol-2-yl)phenyl)-5-(1-((R)-2,3-dihydroxy-2-methylpropyl)-1H-pyrazol-4-yl)pyrazolo[1,5-a]pyridine-3-carboxamide or N-(2-chloro-5-(5-((1R,2S)-2-fluorocyclopropyl)-2H-tetrazol-2-yl)phenyl)-5-(1-((R)-2,3-dihydroxy-2-methylpropyl)-1H-pyrazol-4-yl)pyrazolo[1,5-a]pyridine-3-carboxamide] |
| 0.7 nM | 5.9 | Cc1ccc(-n2nnc(C3CC3)n2)cc1NC(=O)c1cnn2ccc(-c3cnn(CCO)c3)cc12 [Example 52, N-(5-(5-cyclopropyl-2H-tetrazol-2-yl)-2-methylphenyl)-5-(1-(2-hydroxyethyl)-1H-pyrazol-4-yl)pyrazolo[1,5-a]pyridine-3-carboxamide] |
| 1.6 nM | 3.9 | Cc1cc(Cl)c(NC(=O)c2cnn3ccc(-c4cn(CC5(O)CCOCC5)nc4C)cc23)cc1-c1nnn(C2CC2)n1 [Example 235, N-(2-chloro-5-(2-cyclopropyl-2H-tetrazol-5-yl)-4-methylphenyl)-5-(1-((4-hydroxytetrahydro-2H-pyran-4-yl)methyl)-3-methyl-1H-pyrazol-4-yl)pyrazolo[1,5-a]pyridine-3-carboxamide] |
| 12 nM | 3.5 | CCS(=O)(=O)N1CC(n2nnc(-c3ccc(C)c(NC(=O)c4cnn5ccccc45)c3)n2)C1 [Example 173, N-(5-(2-(1-(ethylsulfonyl)azetidin-3-yl)-2H-tetrazol-5-yl)-2-methylphenyl)pyrazolo[1,5-a]pyridine-3-carboxamide] |
| 10.3 nM | 15.9 | CCOC(=O)N1CC(n2nnc(-c3ccc(C)c(NC(=O)c4cnn5ccc(NC)cc45)c3)n2)C1 [Example 126, ethyl 3-(5-(4-methyl-3-(5-(methylamino)pyrazolo[1,5-a]pyridine-3-carboxamido)phenyl)-2H-tetrazol-2-yl)azetidine-1-carboxylate] |
| 6.1 nM | 11 | Cc1ccc(-c2nnn(C3CC(F)(F)C3)n2)cc1NC(=O)c1cnn2ccc(N3CC[C@H](O)C3)cc12 [Example 62, (S)-N-(5-(2-(3,3-difluorocyclobutyl)-2H-tetrazol-5-yl)-2-methylphenyl)-5-(3-hydroxypyrrolidin-1-yl)pyrazolo[1,5-a]pyridine-3-carboxamide] |

| Structure (SMILES) | IC50 [1] | efflux ratio at 2 h, 1 µM [2] |
| --- | --- | --- |
| COC(=O)N1CC(n2nnc(-c3ccc(C)c(NC(=O)c4cnn5ccc(NCCOC(C)(C)C)cc45)c3)n2)C1 [Example 93, methyl 3-(5-(3-(5-((2-(tert-butoxy)ethyl)amino)pyrazolo[1,5-a]pyridine-3-carboxamido)-4-methylphenyl)-2H-tetrazol-2-yl)azetidine-1-carboxylate] | 29 nM | 11.4 |
| COC(=O)N1CC(n2nnc(-c3ccc(C)c(NC(=O)c4cnn5ccc(OCCC(C)(C)O)cc45)c3)n2)C1 [Example 65, methyl 3-(5-(3-(5-(3-hydroxy-3-methylbutoxy)pyrazolo[1,5-a]pyridine-3-carboxamido)-4-methylphenyl)-2H-tetrazol-2-yl)azetidine-1-carboxylate] | 33.7 nM | 23.5 |
